Results on one compound are retold here after patent US20090211893A1, “Photo-Activatable Amino Acids” (priority 2005, published 2009).

The test system of data set [1] is COS7 cells. The data set is described as follows: Incorporation of [1-14C]photo-Met and [3H]Phe into newly synthesized protein. Format: cell-based, monkey. On the procedure: Cells were washed 6 times with PBS and lysed in 0.5% Triton X-100, 0.2% sodium deoxycholate. Aggregated DNA was removed, protein was precipitated^43, the pellet was redissolved in 0.3 ml 0.5% SDS and subjected to a second round of precipitation. […] The dried pellet was redissolved and processed for scintillation counting (data of Table 1 and FIG. 4b) or processed as follows for amino acid analysis (FIG. 2b): the pellet was dissolved in 600 µl 50 mM NH4HCO3, 0.5% SDS, 3 mM CaCl2 containing 0.25 mg pronase (Roche) followed by incubation at 37° C. for 20 h. The sample was lyophilized, dissolved in 600 μl of 7 N HCl containing 4 mg of glutamic acid and 6 mg of photo-Met and heated to 70° C. for 24 h. A Dowex 50WX8 column (1.6×24 cm) was prepared^18 and equilibrated with 0.1 M sodium citrate pH 3.8. The sample was concentrated to 50 μl in a speed-vak, diluted to 1 ml with 0.1 M sodium citrate pH 3.8, and loaded onto the column. The column was eluted at 24° C. at a flow rate of 20 ml/h with 70 ml 0.1 M sodium citrate pH 3.8, 26 ml 0.1 M sodium citrate pH 4.3 and 100 ml of 0.1 M sodium citrate pH 4.5. Fractions of 3 ml were collected and assayed for absorbance at 350 nm, radioactivity by scintillation counting, and amino groups by the fluorescamine method^44.
To decrease competition for activation by tRNA synthetases, media devoid of the structurally related amino acids Leu and Met (LM-2) or, for some experiments, devoid of Leu, Met, Ile and Val (LM-4) were used. Proteins incorporated radioactivity as shown by autoradiography after separation by SDS-PAGE (FIG. 2a, lane 3). […] 88% of the radioactivity in the labeled proteins was intact [1-^14C]photo-Met (FIG. 2b, photo-Met). A small peak eluting slightly earlier than glutamic acid (FIG. 2 B, Glu) contained 7% of the radioactivity. This peak was also observed if free [1-^14C]photo-Met was heated with HCl under the conditions of the hydrolysis (data not shown) and therefore represents a product of thermal decomposition of the amino acid. Under the conditions employed, radioactivity originating from degradation/re-integration would be expected to appear as aspartate and glutamate (oxidative release of [^14C]CO2, metabolism via pyruvate carboxylase, citric acid cycle and transamination to Gln and Asn that will be hydrolyzed to Glu and Asp by hot HCl). However, no radioactivity was incorporated via this pathway. We conclude that at least 95% of incorporated radioactivity represents intact [1-^14C]photo-Met. To obtain quantitative data on the frequency of incorporation of photo-Met into newly synthesized protein, we performed co-labeling with [1-^14C]photo-Met and [^3H]Phe. […] Two in three hundred amino acids in newly synthesized protein will be photo-Met.

Data set [2] has as its system COS7 cells. Kind of data set: Protein biosynthesis by incorporation of [3H]Phe. Format: cell-based, monkey. The source says: (§1) Unnatural amino acids frequently are toxic to cells. To find out if this is the case for photo-amino acids of the invention, we monitored in COS7 cells protein biosynthesis by incorporation of [^3H]Phe and viability by trypan blue exclusion of cells grown in the presence or absence of the photo-amino acids photo-Leu, photo-Met and photo-Ile. Due to the lack of two essential amino acids in the growth medium, protein biosynthesis is reduced to about 65% of that in a full growth medium. […] Although cells grew slightly slower than in full growth medium, viability (Table 2) and cell morphology (not shown) were unaffected.

Data set [3] deals with COS7 cells. The data set is described as follows: Cell viability by trypan blue exclusion. Format: cell-based, monkey. Particulars: LM-2 medium supplement; percent ± SD of viable cells (n = 6).
Description: as §1

Data set [4] deals with E. coli beta-galactosidase. Kind of data set: Activity of beta-galactosidase expressed in cells grown with photo-amino acids. Particulars: COS 7 cells, 20 h in LM-2 with photo-amino acid; percent ± SD (n = 6) of value in DMEM + FCS. Format: cell-based, monkey. The source says:
We furthermore tested, whether proteins produced by cells grown with photo-amino acids are functional or not. For that, we transfected cells with GFP-fusion constructs of the small GTPase Rab5 and of mutated Rab5 that is constitutively activated (GFP-Rab5QL) or dominant negative (GFP-Rab5SN)^19 and monitored the GFP fluorescence by confocal microscopy. Four hours after transfection, when cells were switched to media containing photo-amino acids, no GFP signal was detectable (see FIG. 7). […] Both, staining intensity and localization were unaffected by the presence of either of the photo-amino acids. Taking into account a frequency of substitution of photo-Met for Met of 35% (see below) and the amounts of Met in Rab5 and GFP, more than 80% of the fusion protein will have photo-Met in both the Rab5- and the GFP-part of the fusion, more than 99% in at least one of the two parts. […] To corroborate this with a quantitative assay, we measured the activity of beta-galactosidase that was expressed in the absence or presence of photo-amino acids (see Table 4). Activity in LM-2 labeling medium was 79% of that in full DMEM. The addition of either of the three photo-amino acids or of a mixture of photo-Met and photo-Leu had no significant additional effect. E. coli beta-galactosidase contains 23 methionines of which on average 8 would be replaced by photo-Met; less than 0.01% of the protein are expected to have no substitution by photo-Met. We conclude that photo-amino acids are non-toxic to cultivated mammalian cells and can, at least partially, functionally replace branched chain amino acids and methionine.

The test system of data set [5] is HA-tagged human PGRMC1. Kind of data set: Competition of PGRMC1 cross-linking by natural amino acids. Format: cell-based. The note with it: 3 mM competing amino acid, COS7 cells in LM-4. On the procedure: FIG. 4: Specificity of incorporation and cross-linking by photo-Met and photo-Leu. COS7 cells were transfected with HA-tagged human PGRMC1 and were grown in LM-4 in the absence or presence of photo-Leu (A) or photo-Met (B) with addition of 3 mM of the indicated competing amino acid. cross-linked products formed after UV-irradiation were detected by SDS-PAGE followed by western blotting against the HA-epitope. (C) COS7 cells were grown in the presence of 1.7 mM [1-^14C]photo-Met, a constant trace amount of [^3H]Phe and 3 mM of competing unlabeled amino acids as indicated in the legend. Protein was precipitated and protein-bound radioactivity was determined by scintillation counting. […] The control value obtained in the absence of competing amino acid (con) is set to 100. Data are average±SD of triplicate determinations.
If so, addition of the complementary naturally occurring amino acid should strongly reduce incorporation and inhibit photo-crosslinking. […] To find out if competition for cross-linking reflects competition for incorporation, we competed incorporation of [1-^14C]photo-Met with the same set of amino acids (FIG. 4c). […] It should be noted that Met, Val, Leu and Ile all are transported into cells by the L-type transport system^25, which presumably also transports the three photo-amino acids. The strong difference in competition by Met and Leu versus Val and Ile excludes competition at the level of uptake.

On to `CC1(CCC(N)C(=O)O)N=N1` [photo-Met, L-2-amino-5,5′-azi-hexanoic acid], for which the “frequency of substitution of photo-Met for Met” value in data set [1] was 35%. Also, the Protein synthesis in data set [2] (LM-2 medium supplement, value in full DMEM medium set to 100, average ± SD of triplicate) turned out to be 76.0 ± 6.4. Moreover, the “effect on protein biosynthesis” value in data set [2] (addition to LM-2 medium) is given as “increased protein biosynthesis”. The same compound displayed a Cell viability in data set [3] of 99.8 ± 0.1%. Moreover, the beta-galactosidase activity in data set [4] came out at 73 ± 5%. Moreover, in data set [5], the “competition of cross-linking by Met, Val, Leu and Ile” value is “mainly by Met, and to a lower extent by Leu”; the “effect of Val and Ile on cross-linking” value is “did not compete, but even enhance”.
